Test results published in patent US8871463B2, “Method for screening a glutamate release inhibitor in an astrocyte” (Korea Institute of Science and Technology, priority 2012, dated 2014).
“Also recorded” adds a separate entry of the source. Like-named read-outs stand apart in the source and are kept apart here.

Key:
astrocyte [1] = assay: Fura-2 Ca2+ imaging of astrocyte during sniffer patch; format: cell-based, mouse; settings: for TFLLR-induced astrocytic Ca2+ transient: TFLLR 500 μM, 100 ms
Protocol: On the day of sniffer-patch, cultured astrocytes (HEK cells added) were incubated with 5 μM Fura-2 AM (mixed with 5 μl of 20% Pluronic acid) (Invitrogen) for 40 min and washed at room temperature, and subsequently transferred to a microscope stage for imaging. External solution contained (in mM): 150 NaCl, 10 Hepes, 3 KCl, 2 CaCl2, 2 MgCl2, 5.5 glucose, pH adjusted to pH 7.3 and osmolarity to 325 mOsmol kg^−1. Intensity images of 510 nm wavelength were taken at 340 nm and 380 nm excitation wavelengths using either iXon EMCCD (DV887 DCS-BV, ANDOR technology). Two resulting images were used for ratio calculations in Axon Imaging Workbench version 6.2 (Axon Instruments). GluR1LY-mediated currents were recorded from HEK cells expressing GluR1L497Y under voltage clamp (Vh=−70 mV) using Multiclamp 700B amplifier (Molecular Devices), acquired with pClamp 9.2. Recording electrodes […] were filled with (mM): 110 Cs-Gluconate, 30 CsCl, 0.5 CaCl2, 10 Hepes, 4 Mg-ATP, 0.3 Na3-GTP and 10 BAPTA (pH adjusted to 7.3 with CsOH and osmolarity adjusted to 290-310 mOsm/kg with sucrose). For simultaneous recording, Imaging Workbench was synchronized with pClamp 9.2.

astrocyte [2] = format: cell-based, mouse
[3] = test system: primary cultured astrocyte; format: cell-based, mouse
GluR1-L497Y = GluR1-L497Y (Homo sapiens, UniProt P42261, L497Y); format: cell-based
GluR1-L497Y, sequence (P42261 19-906 L497Y limits assumed): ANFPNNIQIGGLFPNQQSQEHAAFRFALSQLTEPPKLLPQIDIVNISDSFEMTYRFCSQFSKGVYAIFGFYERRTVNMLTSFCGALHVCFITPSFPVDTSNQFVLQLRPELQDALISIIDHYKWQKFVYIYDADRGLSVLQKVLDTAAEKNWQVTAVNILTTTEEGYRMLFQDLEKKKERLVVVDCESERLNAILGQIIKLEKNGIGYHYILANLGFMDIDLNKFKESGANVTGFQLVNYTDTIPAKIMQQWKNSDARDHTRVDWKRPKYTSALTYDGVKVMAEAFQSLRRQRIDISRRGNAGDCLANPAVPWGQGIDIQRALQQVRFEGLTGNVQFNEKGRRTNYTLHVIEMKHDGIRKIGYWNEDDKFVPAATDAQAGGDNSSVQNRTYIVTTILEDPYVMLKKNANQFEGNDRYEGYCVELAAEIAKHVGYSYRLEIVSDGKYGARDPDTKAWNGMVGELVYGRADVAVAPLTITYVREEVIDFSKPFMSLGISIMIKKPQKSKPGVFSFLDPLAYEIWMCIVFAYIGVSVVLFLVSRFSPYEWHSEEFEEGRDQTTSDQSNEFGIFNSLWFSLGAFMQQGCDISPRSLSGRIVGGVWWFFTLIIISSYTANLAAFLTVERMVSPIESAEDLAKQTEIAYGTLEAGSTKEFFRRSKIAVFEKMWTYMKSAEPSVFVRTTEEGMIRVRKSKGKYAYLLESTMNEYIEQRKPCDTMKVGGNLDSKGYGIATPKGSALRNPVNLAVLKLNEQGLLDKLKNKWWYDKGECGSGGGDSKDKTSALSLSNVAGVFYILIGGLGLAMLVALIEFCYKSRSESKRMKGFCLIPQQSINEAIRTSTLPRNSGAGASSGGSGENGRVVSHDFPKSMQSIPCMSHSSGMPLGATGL

## CCCCC/C=C\C/C=C\C/C=C\C/C=C\CCCC(=O)NCCCl [ACEA, N-(2-Chloroethyl)-5Z,8Z,11Z,14Z-eicosatetraenamide]
Astrocyte [1]
  astrocytic Ca2+ increase induced by the agent itself: without a measurable Ca^2+ increase
Astrocyte [2]
  fast-mode of glutamate release induced by the agent itself: induces mainly fast-mode; also recorded: activated a fast-mode; also recorded: induce fast-mode
  slow-mode of glutamate release induced by the agent itself: without a measurable Ca^2+ increase or a slow-mode

## CC(=O)OCOC(=O)CN(CC(=O)OCOC(C)=O)c1ccccc1OCCOc1ccccc1N(CC(=O)OCOC(C)=O)CC(=O)OCOC(C)=O [BAPTA-AM, 1,2-bis-(o-inophenoxy)ethane-N,N,N′,N′-tetraacetic Acid Tetra-(acetoxymethyl) Ester]
[3]
  slow-mode of TFLLR-induced glutamate release: significantly reduced
Astrocyte [1]
  TFLLR-induced astrocytic Ca2+ transient: completely block; also recorded: eliminated

## [Ba+2] [Ba^2+]
[3]
  fast and slow-modes of TFLLR-induced glutamate release (TFLLR-induced GluR1L497Y-mediated current): did not show any significant effect

## NCC(CC(=O)O)c1ccc(Cl)cc1 (centres unmarked) [Baclofen]
Astrocyte [1]; pressure-applied 100 ms
  astrocytic Ca2+ increase induced by the agent itself: without a Ca^2+ transient
Astrocyte [1]; pressure-applied 100 ms, listed as baclofen
  astrocytic Ca2+ increase induced by the agent itself: without a measurable Ca^2+ increase
Astrocyte [2]
  fast-mode of glutamate release induced by the agent itself: activated a fast-mode; also recorded: induces fast-mode
  slow-mode of glutamate release induced by the agent itself: without a measurable Ca^2+ increase or a slow-mode

## CC1(C)[C@@H](OC(=O)CCC(=O)O)CC[C@]2(C)[C@H]3C(=O)C=C4[C@@H]5C[C@@](C)(C(=O)O)CC[C@]5(C)CC[C@@]4(C)[C@]3(C)CC[C@@H]12 [CBX, Carbenoxolone]
[3]
  fast and slow-modes of TFLLR-induced glutamate release (TFLLR-induced GluR1L497Y-mediated current): does not inhibit; also recorded: did not show any significant effect

## OC[C@H]1O[C@@H](n2cnc3c(NC4CCCC4)nc(Cl)nc32)[C@H](O)[C@@H]1O [CCPA, 2-chloro-N(6)-cyclopentyladenosine]
Astrocyte [1]; pressure-applied 100 ms
  astrocytic Ca2+ increase induced by the agent itself: does not induce; also recorded: without a measurable Ca^2+ increase
Astrocyte [2]
  fast-mode of glutamate release induced by the agent itself: induces mainly fast GluR1-mediated inward current; also recorded: activated a fast-mode; also recorded: induce fast-mode
  slow-mode of glutamate release induced by the agent itself: without a measurable Ca^2+ increase or a slow-mode

## N#Cc1cc2c(cc1[N+](=O)[O-])=NC(=O)C(=O)N=2 [CNQX, 6-cyano-7-nitroquinoxaline-2,3-dione]
[3]
  fast and slow-modes of TFLLR-induced glutamate release (TFLLR-induced GluR1L497Y-mediated current): blocked
  fast-mode of TFLLR-induced glutamate release: blocked
  slow-mode of TFLLR-induced glutamate release: blocked

## C/C=C/[C@H]1O[C@@](O)([C@@H](C)[C@H](O)[C@H](C)[C@H]2OC(=O)/C(OC)=C/C(C)=C/[C@@H](C)[C@@H](O)[C@@H](CC)[C@@H](O)[C@H](C)C/C(C)=C/C=C/[C@@H]2OC)C[C@@H](O[C@H]2C[C@@H](O)[C@H](OC(N)=O)[C@@H](C)O2)[C@@H]1C [Concanamycin A]
[3]
  fast and slow-modes of TFLLR-induced glutamate release (TFLLR-induced GluR1L497Y-mediated current): appeared to block
GluR1-L497Y
  1 mM glutamate-induced GluR1L497Y-mediated current of sensor cell: reduced
  surface expression of GluR1-L497Y in the sensor cell: almost completely eliminated

## [Cs+] [Cs^+]
[3]
  fast and slow-modes of TFLLR-induced glutamate release (TFLLR-induced GluR1L497Y-mediated current): did not show any significant effect

## CCCCC1(C2CCCC2)Cc2cc(OCCCC(=O)O)c(Cl)c(Cl)c2C1=O (centres unmarked) [DCPIB, 4-(2-butyl-6,7-dichloro-2-cyclopentylindan-1-on-5-yl)oxybutyric acid]
[3]
  fast and slow-modes of TFLLR-induced glutamate release (TFLLR-induced GluR1L497Y-mediated current): did not show any significant effect

## O=S(=O)(O)c1cc(N=C=S)ccc1C=Cc1ccc(N=C=S)cc1S(=O)(=O)O [DIDS, 4,4′-Diisothiocyano-2,2′-stilbenedisulfonic acid]
[3]
  fast and slow-modes of TFLLR-induced glutamate release (TFLLR-induced GluR1L497Y-mediated current): inhibit; also recorded: blocked

## CC(C)Cn1c(=O)n(C)c(=O)c2[nH]cnc21 [IBMX, 3-isobutyl-1-methylxanthine]
[3]
  fast-mode of TFLLR-induced glutamate release: does not affect

## O=C(O)c1cccnc1Nc1cccc(C(F)(F)F)c1 [NFA, Niflumic acid]
[3]
  fast and slow-modes of TFLLR-induced glutamate release (TFLLR-induced GluR1L497Y-mediated current): inhibit; also recorded: blocked
GluR1-L497Y
  1 mM glutamate-induced GluR1L497Y-mediated current of sensor cell: does not affect

## O=C(O)c1cc([N+](=O)[O-])ccc1NCCCc1ccccc1 [NPPB, 5-Nitro-2-(3-phenylpropylamino)benzoic Acid]
[3]
  fast and slow-modes of TFLLR-induced glutamate release (TFLLR-induced GluR1L497Y-mediated current): blocked

## CC[N+](CC)(CC)CC [TEA]
[3]
  fast and slow-modes of TFLLR-induced glutamate release (TFLLR-induced GluR1L497Y-mediated current): did not show any significant effect

## C=C[C@H]1C[N@@]2CC[C@H]1C[C@H]2[C@H](O)c1ccnc2ccc(OC)cc12 [quinine]
[3]
  fast and slow-modes of TFLLR-induced glutamate release (TFLLR-induced GluR1L497Y-mediated current): inhibit; also recorded: blocked

## C-terminus of Phosducin: C-terminus of mouse phosducin (251-278 a.a., SEQ ID NO: 6), over-expressed; inhibits Gαi-Gβγ dissociation
[3]
  fast-mode of TFLLR-induced glutamate release: almost completely inhibited; also recorded: inhibition of the fast-mode
Astrocyte [1]
  TFLLR-induced astrocytic Ca2+ transient: without affecting
Astrocyte [1]; listed as Phosducin C-terminal fragment
  TFLLR-induced astrocytic Ca2+ transient: do not inhibit

## TFLLR-NH2
[3]; n=31
  time from TFLLR to slow peak: 32.8 ± 2.6 s
Astrocyte [1]; n=31
  time from TFLLR to Ca2+ peak: 10.8 ± 0.7 s
GluR1-L497Y
  GluR1-mediated current induced in sensor HEK cell without astrocyte: does not induce

## β-ARK-c term: C-terminus of Beta-adrenergic receptor kinase (SEQ ID NO: 5), over-expressed; inhibits Gβγ dissociation (WKKELRDAYREAQQLVQRVPKMKNKPRSVQRVPKMKNKPRS; B-Ark(Beta-adrenergic receptor kinase) C-terminus)
Astrocyte [1]
  TFLLR-induced astrocytic Ca2+ transient: do not inhibit
Astrocyte [1]; listed as […]-ARK
  TFLLR-induced astrocytic Ca2+ transient: without affecting

B1: RGS-2: Regulatory G protein signaling 2, over-expressed; selectively inhibits the Gq subunit (protein, UniProt P41220 1-211, looked up)
Regulator of G-protein …: MQSAMFLAVQHDCRPMDKSAGSGHKSEEKREKMKRTLLKDWKTRLSYFLQNSSTPGKPKTGKKSKQQAFIKPSPEEAQLWSEAFDELLASKYGLAAFRAFLKSEFCEENIEFWLACEDFKKTKSPQKLSSKARKIYTDFIEKEAPKEINIDFQTKTLIAQNIQEATSGCFTTAQKRVYSLMENNSYPRFLESEFYQDLCKKPQITTEPHAT
Astrocyte [1]
  TFLLR-induced astrocytic Ca2+ transient: greatly and significantly reduced; also recorded: selectively and significantly inhibited
